Measurements reported in patent US10584154B2, “Vesicles comprising lectins expressed on the surface and methods of use thereof to deliver an agent to autophagic and apoptotic cells” (TZU CHI UNIVERSITY, priority 2017, dated 2020).

Tests used:
[1] = system: apoptotic cells (mouse B16-F10 cells suspended for 4 hours); test: Blocking of liposomes targeting to apoptotic cells (flow cytometry); format: cell-based; details: M6PR+P-selectin, M6PR+PSGL-1 groups
Experimental: (§1) The mouse B16-F10 cells were suspended for 4 hours to induce autophagy and apoptosis. The autophagy and apoptosis cell were labeled with green fluorescent dyes (GFDs), using Cyto-ID autophagy detection kit (Enzo Life Sciences) (see FIG. 1 and FIG. 3) and CaspGLOW™ Red Active Caspase-3 Staining Kit (BioVision) (see FIG. 2 and FIG. 4) kits, respectively. The autophagy and apoptosis cell containing populations were engaged with various protein conjugated liposomes, which were labeled with fluorescent dye calcein-red (CR). The percentage of B16-F10-liposome engaged populations (GFD and CR double positive populations) were determined using flow cytometry. The levels of liposomes and fluorescent beads engaged with none conjugated cells (the “unconjugated” groups) were normalized to 100% (see FIG. 1 and FIG. 2).
(§2) The mouse B16-F10 cells were suspended for 4 hours and then treated with blocking antibody or soluble M6PR recombinant protein plus additional M6PR+P-selectin-conjugated liposomes. The autophagy and apoptosis cell were labeled with green fluorescent dyes (GFDs), using Cyto-ID autophagy detection kit (Enzo Life Sciences) and CaspGLOW™ Red Active Caspase-3 Staining Kit (BioVision) kits, respectively. […] The percentage of B16-F10-liposome engaged populations (GFD and CR double positive populations) were determined using flow cytometry. […]

[2] = system: autophagy cells (mouse B16-F10 cells suspended for 4 hours); test: Blocking of liposomes targeting to autophagy cells (flow cytometry); format: cell-based; details: M6PR+P-selectin, M6PR+PSGL-1 groups
Experimental: as §1, §2

## sialyl-lewis x oligosaccharide
[1]
  antidote: blocking of P-selectin, E-selectin and PSGL-1-conjugated liposomes targeting to apoptotic cells: able to serve as the antidotes
[2]
  antidote: blocking of P-selectin, E-selectin and PSGL-1-conjugated liposomes targeting to autophagy cells: able to serve as the antidotes
